Laboratory results from patent publication US7071231B2, “Naphthalene ureas as glucose uptake enhancers” (Telik, Inc., priority 1999, dated 2006).
Where a name gives a salt, the structure may show the parent alone.

Target: T1, β-kinase domain of the human insulin receptor (CKD) (Homo sapiens, UniProt P06213)
T1 construct: The complete β-kinase domain of the human insulin receptor (CKD) was expressed in, and purified from, baculovirus; made in house
Assay: 32P-cytoplasmic kinase domain (CKD) autophosphorylation assay
Type: biochemical
Details: phosphorylation of CKD expressed as % of the vehicle level; 10 minutes at room temperature; compound concentration not given
Procedure: ^32P-cytoplasmic Kinase Domain (CKD) Autophosphorylation Assay The insulin signaling pathway is activated through stimulation of the insulin receptor. A major component of this activation is the phosphorylation of a specific portion of the receptor called the β-kinase domain. The complete β-kinase domain of the human insulin receptor (CKD) was expressed in, and purified from, baculovirus. CKD (4.0μg/ml), in a solution of 29 mM HEPES (pH 7.6), 0.05% Triton X-100, 10 mM MgCl2, 2 mM MnCl2 (50 μl final volume), was combined with 50 μM ATP, and 5 μCi ^32P-ATP (3000Ci/mmol.). A test compound, or the vehicle (dimethyl sulfoxide (DMSO)) was added to a final DMSO concentration of 1%. The mixture was incubated for 10 minutes at room temperature. The reaction was terminated by the addition of 10 μl 200 mM EDTA. A 30 μl volume was removed, mixed with 5 μl of 6× Laemmeli sodium dodecyl sulfate (SDS) treatment buffer, and heated to 94° C. for 5 minutes. A 20 μl aliquot was then run an SDS-PAGE gel. The radioactivity incorporated into the CKD band was quantified by phosphorimaging of the gel, or scintillation counting of the excised bands. The potency of a compound for increasing phosphorylation was expressed as % of the vehicle level.

T1 sequence (P06213 980-1382 limits assumed): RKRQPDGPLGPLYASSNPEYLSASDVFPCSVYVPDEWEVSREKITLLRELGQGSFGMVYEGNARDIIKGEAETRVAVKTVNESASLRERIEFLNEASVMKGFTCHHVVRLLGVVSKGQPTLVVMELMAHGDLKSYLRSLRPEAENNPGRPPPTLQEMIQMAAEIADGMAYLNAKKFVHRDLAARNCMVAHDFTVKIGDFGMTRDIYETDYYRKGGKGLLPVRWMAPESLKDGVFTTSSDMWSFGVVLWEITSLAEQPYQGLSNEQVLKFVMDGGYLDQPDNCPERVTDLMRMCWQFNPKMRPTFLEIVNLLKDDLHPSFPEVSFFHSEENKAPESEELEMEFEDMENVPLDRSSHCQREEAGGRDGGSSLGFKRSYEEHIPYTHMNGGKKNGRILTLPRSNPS

SMILES | % Activity vs. Control [%]
COc1cc(S(=O)(=O)O)cc2cc(NC(=O)Nc3ccc4c(O)cc(S(=O)(=O)O)cc4c3)ccc12 [Compound 98, 4-hydroxy-7-{[(5-methoxy-7-sulfo(2-naphthyl))amino]carbonylamino}naphthalene-2-sulfonic acid] | 166
COC(=O)c1ccc(NS(=O)(=O)c2cc(O)c3ccc(NC(=O)Nc4ccc5c(O)cc(S(=O)(=O)O)cc5c4)cc3c2)cc1 [Compound 26, 4-hydroxy-7-({[5-hydroxy-7-({[4-(methoxycarbonyl)phenyl]amino}sulfonyl)(2-naphthyl)]amino}carbonylamino)naphthalene-2-sulfonic acid] | 124
O=C(Nc1ccc2ccc(S(=O)(=O)Nc3cccc(C(=O)O)c3)cc2c1)Nc1ccc2ccc(S(=O)(=O)Nc3cccc(C(=O)O)c3)cc2c1 [Compound 40, 3-{[(7-{[N-(7-{[(3-carboxyphenyl)amino]sulfonyl}-2-naphthyl)carbamoyl]amino}-2-naphthyl)sulfonyl]amino}benzoic acid] | 130
COC(=O)c1ccc(NS(=O)(=O)c2cc(O)c3ccc(NC(=O)Nc4ccc5c(O)cc(S(=O)(=O)Nc6ccc(C(=O)OC)cc6)cc5c4)cc3c2)cc1 [Compound 27, methyl 4-({[4-hydroxy-7-({[5-hydroxy-7-({[4-(methoxycarbonyl)phenyl]amino}sulfonyl)(2-naphthyl)]amino}carbonylamino)-2-naphthyl]sulfonyl}amino)benzoate] | 112
CCOC(=O)COc1cc(S(=O)(=O)O)cc2cc(NC(=O)Nc3ccc4c(OCC(=O)OCC)cc(S(=O)(=O)O)cc4c3)ccc12.N.N [Compound 95, 4-[(ethoxycarbonyl)-methoxy]-7-[({5-[(ethoxycarbonyl)methoxy]-7-sulfo(2-naphthyl)}amino)-carbonylamino]-naphthalene-2-sulfonic acid, diammonium salt] | 101
Cc1ccc(OS(=O)(=O)c2cccc(NS(=O)(=O)c3cc(O)c4ccc(NC(=O)Nc5ccc6c(O)cc(S(=O)(=O)Nc7cccc(S(=O)(=O)Oc8ccc(C)cc8)c7)cc6c5)cc4c3)c2)cc1 [Compound 11, 4-methylphenyl 3-[({4-hydroxy-7-[(N-{5-hydroxy-7-[({3-[(4-methylphenyl)oxysulfonyl]phenyl}amino)sulfonyl](2-naphthyl)}carbamoyl)amino]-2-naphthyl}sulfonyl)amino]benzenesulfonate] | 96
O=C(Nc1ccc2ccc(S(=O)(=O)Nc3ccccc3)cc2c1)Nc1ccc2ccc(S(=O)(=O)Nc3ccccc3)cc2c1 [Compound 76, N-{7-[(phenylamino)sulfonyl](2-naphthyl)}({7-[(phenylamino)sulfonyl](2-naphthyl)}amino)carboxamide] | 89
O=C(O)COc1cc(S(=O)(=O)[O-])cc2cc(NC(=O)Nc3ccc4c(OCC(=O)O)cc(S(=O)(=O)[O-])cc4c3)ccc12.[Na+].[Na+] [Compound 97, 2-[6-({N-[5-(carboxymethoxy)-7-sulfo(2-naphthyl)]carbamoyl}amino)-3-sulfonaphthyloxy]acetic acid disodium salt] | 99
O=C(Nc1ccc2c(OCc3ccccc3S(=O)(=O)O)cc(S(=O)(=O)O)cc2c1)Nc1ccc2c(OCc3ccccc3S(=O)(=O)O)cc(S(=O)(=O)O)cc2c1 [Compound 100, 4-[(2-sulfophenyl)methoxy]-7-[({7-sulfo-5-[(2-sulfophenyl)methoxy](2-naphthyl)}amino)carbonylamino]naphthalene-2-sulfonic acid] | 79
Cc1ccc(OS(=O)(=O)c2cccc(NS(=O)(=O)c3ccc4ccc(NC(=O)Nc5ccc6ccc(S(=O)(=O)Nc7cccc(S(=O)(=O)Oc8ccc(C)cc8)c7)cc6c5)cc4c3)c2)cc1 [Compound 9, 4-methylphenyl 3-[({7-[(N-{7-[({3-[(4-methylphenyl)oxysulfonyl]phenyl}amino)sulfonyl]-2-naphthyl}carbamoyl)amino]-2-naphthyl}sulfonyl)amino]benzenesulfonate] | 118
O=C(Nc1ccc2c(O)cc(S(=O)(=O)O)cc2c1)Nc1ccc2c(O)cc(S(=O)(=O)Nc3cccc(S(=O)(=O)O)c3)cc2c1 [Compound 14, 4-hydroxy-7-{[(5-hydroxy-7-{[(3-sulfophenyl)amino]sulfonyl}(2-naphthyl))amino]carbonylamino}naphthalene-2-sulfonic acid] | 110
O=C(Nc1ccc2c(O)cc(S(=O)(=O)O)cc2c1)Nc1ccc2c(OCCCS(=O)(=O)O)cc(S(=O)(=O)O)cc2c1 [Compound 102, 4-hydroxy-7-({[7-sulfo-5-(3-sulfopropoxy)(2-naphthyl)]amino}carbonylamino)naphthalene-2-sulfonic acid] | 115
O=C(Nc1ccc2ccc(S(=O)(=O)O)cc2c1)Nc1ccc2ccc(S(=O)(=O)Nc3cccc(S(=O)(=O)O)c3)cc2c1 [Compound 12, 7-{[(7-{[(3-sulfophenyl)amino]sulfonyl}-2-naphthyl)amino]carbonylamino}naphthalene-2-sulfonic acid disodium salt] | 131
O=C(Nc1ccc2c(OCCCS(=O)(=O)O)cc(S(=O)(=O)O)cc2c1)Nc1ccc2c(OCCCS(=O)(=O)O)cc(S(=O)(=O)O)cc2c1 [Compound 101, 4-(3-sulfopropoxy)-7-({[7-sulfo-5-(3-sulfopropoxy)(2-naphthyl)]amino}carbonylamino)naphthalene-2-sulfonic acid] | 104

Tested on: 3T3 L1 fibroblasts
Assay: Glucose transport activity assay (14C-2-deoxy-D-glucose uptake)
Type: cell-based
Details: Mus musculus; EC (effective concentration) for increase in glucose transport; 14C-2-deoxy-D-glucose, 3T3 L1 cells; read-out: Concentration (μM) to reach >150% activity of vehicle control
Summary of the method: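 Differentiated 3T3 L1 adipocytes (IBMX/dexamethasone/insulin induction), serum-starved overnight, preincubated 30 min at 37 °C with compound ± insulin in pH 7.4 salt buffer, then 30 min with 5 μCi/ml 14C-2-deoxy-D-glucose. Lysate radioactivity counted; EC = concentration raising uptake above 150% of vehicle control.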

SMILES | EC (150% of vehicle control) [µM]
COc1cc(S(=O)(=O)O)cc2cc(NC(=O)Nc3ccc4c(O)cc(S(=O)(=O)O)cc4c3)ccc12 [Compound 98, 4-hydroxy-7-{[(5-methoxy-7-sulfo(2-naphthyl))amino]carbonylamino}naphthalene-2-sulfonic acid] | 32
COC(=O)c1ccc(NS(=O)(=O)c2cc(O)c3ccc(NC(=O)Nc4ccc5c(O)cc(S(=O)(=O)O)cc5c4)cc3c2)cc1 [Compound 26, 4-hydroxy-7-({[5-hydroxy-7-({[4-(methoxycarbonyl)phenyl]amino}sulfonyl)(2-naphthyl)]amino}carbonylamino)naphthalene-2-sulfonic acid] | 32
O=C(Nc1ccc2ccc(S(=O)(=O)Nc3cccc(C(=O)O)c3)cc2c1)Nc1ccc2ccc(S(=O)(=O)Nc3cccc(C(=O)O)c3)cc2c1 [Compound 40, 3-{[(7-{[N-(7-{[(3-carboxyphenyl)amino]sulfonyl}-2-naphthyl)carbamoyl]amino}-2-naphthyl)sulfonyl]amino}benzoic acid] | 3.2
O=C(Nc1ccc2ccc(S(=O)(=O)Nc3ccc(O)c(C(=O)O)c3)cc2c1)Nc1ccc2ccc(S(=O)(=O)Nc3ccc(O)c(C(=O)O)c3)cc2c1 [Compound 33, 5-{[(7-{[N-(7-{[(3-carboxy-4-hydroxyphenyl)amino]sulfonyl}(2-naphthyl))carbamoyl]amino}(2-naphthyl))sulfonyl]amino}-2-hydroxybenzoic acid] | 3.2
COC(=O)c1cc(NS(=O)(=O)c2ccc3ccc(/N=C(/Nc4ccc5ccc(S(=O)(=O)Nc6ccc(Cl)c(C(=O)OC)c6)cc5c4)SC)cc3c2)ccc1Cl [Compound 158, methyl 5-({[7-((1Z)-1-aza-2-{[7-({[4-chloro-3-(methoxycarbonyl)phenyl]amino}sulfonyl)(2-naphthyl)]amino}-2-methylthiovinyl)(2-naphthyl)]sulfonyl}amino)-2-chlorobenzoate] | > 32
O=C(Nc1ccc2ccc(S(=O)(=O)Nc3ccc(S(=O)(=O)O)cc3)cc2c1)Nc1ccc2ccc(S(=O)(=O)Nc3ccc(S(=O)(=O)O)cc3)cc2c1 [Compound 22, 4{[(7-{[N-(7-{[(4-sulfophenyl)amino]sulfonyl}-2-naphthyl)carbamoyl]amino}-2-naphthyl)sulfonyl]amino}benzenesulfonic acid] | 3.2
COC(=O)c1cc(NS(=O)(=O)c2ccc3ccc(NC(=S)Nc4ccc5ccc(S(=O)(=O)Nc6ccc(Cl)c(C(=O)OC)c6)cc5c4)cc3c2)ccc1Cl [Compound 157, methyl 2-chloro-5-[({7-[({[7-({[4-chloro-3-(methoxycarbonyl)phenyl]amino}sulfonyl)(2-naphthyl)]amino}thioxomethyl)amino](2-naphthyl)}sulfonyl)amino]benzoate] | > 32
O=C(Nc1ccc2ccc(S(=O)(=O)N[C@@H](Cc3ccc(O)cc3)C(=O)O)cc2c1)Nc1ccc2ccc(S(=O)(=O)N[C@@H](Cc3ccc(O)cc3)C(=O)O)cc2c1 [Compound 75, (2S)-2-({[7-({N-[7-({[(1S)-1-carboxy-2-(4-hydroxyphenyl)ethyl]amino}sulfonyl)(2-naphthyl)]carbamoyl}amino)(2-naphthyl)]sulfonyl}amino)-3-(4-hydroxyphenyl)propanoic acid] | 3.2
O=C(Nc1ccc2ccc(S(=O)(=O)Nc3cc(C(=O)O)ccc3O)cc2c1)Nc1ccc2ccc(S(=O)(=O)Nc3cc(C(=O)O)ccc3O)cc2c1 [Compound 64, 3-{[(7-{[N-(7-{[(3-carboxy-6-hydroxyphenyl)amino]sulfonyl}(2-naphthyl))carbamoyl]amino}(2-naphthyl))sulfonyl]amino}-4-hydroxybenzoic acid] | 3.2
Cc1ccc(NS(=O)(=O)c2ccc3ccc(NC(=O)Nc4ccc5ccc(S(=O)(=O)Nc6ccc(C)c(C(=O)O)c6)cc5c4)cc3c2)cc1C(=O)O [Compound 57, 5-{[(7-{[N-(7-{[(3-carboxy-4-methylphenyl)amino]sulfonyl}(2-naphthyl))carbamoyl]amino}(2-naphthyl))sulfonyl]amino}-2-methylbenzoic acid] | 3.2
